{"source": "paper PMC6271077", "about": "“Synthesis, Anticancer and Antibacterial Activity of Salinomycin N-Benzyl Amides” (Molecules, 2014)", "format_in_all_cases": "cell-based", "key": {"MRSA 537/12": {"system": "MRSA 537/12", "assay": "MIC microdilution, hospital MRSA", "settings": "Staphylococcus aureus"}, "MRSE 489/11": {"system": "MRSE 489/11", "assay": "MIC microdilution, hospital MRSE", "settings": "Staphylococcus epidermidis"}, "[1]": {"system": "S. epidermidis ATCC 35984", "assay": "MIC microdilution", "settings": "Staphylococcus epidermidis"}, "[2]": {"system": "S. epidermidis ATCC 35984", "assay": "Disc-diffusion (GIZ)", "settings": "18 h, 35 °C, un: unmeasurable", "source_text": "(§1) Microorganisms used in this study were as follows: Gram-positive cocci: S. aureus NCTC 4163, S. aureus ATCC 25923, S. aureus ATCC 6538, S. aureus ATCC 29213, S. epidermidis ATCC 12228, S. epidermidis ATCC 35984, Gram-negative rods: E. coli ATCC 10538, E. coli ATCC 25922, E. coli NCTC 8196, P. vulgaris NCTC 4635, P. aeruginosa ATCC 15442, P. aeruginosa NCTC 6749, P. aeruginosa ATCC 27863, B. bronchiseptica ATCC 4617 and yeasts: C. albicans ATCC 10231, C. albicans ATCC 90028, C. parapsilosis ATCC 22019. The other microorganisms used were obtained from the collection of the Department of Pharmaceutical Microbiology, Medical University of Warsaw, Poland.\n(§2) Antibacterial activity was examined by the disc-diffusion method under standard conditions using Mueller-Hinton II agar medium (Becton Dickinson, Heidelberg, Germany) according to CLSI (previously NCCLS) guidelines. Antifungal activities were assessed using Muellere Hinton agar + 2% glucose and 0.5 mg/mL Methylene Blue Dye Medium.\n(§3) Sterile filter paper discs (9 mm diameter, Whatman No. 3 chromatography paper) were dripped with tested compound solutions (in EtOH) to load […] of a given compound per disc. Dry discs were placed on the surface of appropriate agar medium. The results (diameter of the growth inhibition zone, GIZ) were read after 18 h of incubation at 35 °C."}, "S. aureus ATCC 29213": {"system": "S. aureus ATCC 29213", "assay": "Disc-diffusion (GIZ)", "settings": "18 h, 35 °C, un: unmeasurable", "source_text": "as §1, §2, §3"}, "S. aureus ATCC 4163 [3]": {"system": "S. aureus ATCC 4163", "assay": "Disc-diffusion (GIZ)", "settings": "18 h, 35 °C, un: unmeasurable", "source_text": "as §1, §2, §3"}, "S. aureus ATCC 25923": {"system": "S. aureus ATCC 25923", "assay": "Disc-diffusion (GIZ)", "settings": "18 h, 35 °C, un: unmeasurable", "source_text": "as §1, §2, §3"}, "S. aureus ATCC 6538 [4]": {"system": "S. aureus ATCC 6538", "assay": "Disc-diffusion (GIZ)", "settings": "18 h, 35 °C, un: unmeasurable", "source_text": "as §1, §2, §3"}, "[5]": {"system": "S. epidermidis ATCC 12228", "assay": "Disc-diffusion (GIZ)", "settings": "18 h, 35 °C, un: unmeasurable", "source_text": "as §1, §2, §3"}, "MRSA and MRSE": {"system": "MRSA and MRSE", "assay": "MIC microdilution, MRSA and MRSE overall (range given)", "settings": "hospital MRSA and MRSE strains"}, "MRSE 461/11": {"system": "MRSE 461/11", "assay": "MIC microdilution, hospital MRSE", "settings": "Staphylococcus epidermidis"}, "MRSE 459/11": {"system": "MRSE 459/11", "assay": "MIC microdilution, hospital MRSE", "settings": "Staphylococcus epidermidis"}, "MRSE 470/11": {"system": "MRSE 470/11", "assay": "MIC microdilution, hospital MRSE", "settings": "Staphylococcus epidermidis"}, "S. aureus ATCC 6538 [6]": {"system": "S. aureus ATCC 6538", "assay": "MIC microdilution", "settings": "Staphylococcus aureus"}, "MRSE 469/11": {"system": "MRSE 469/11", "assay": "MIC microdilution, hospital MRSE", "settings": "Staphylococcus epidermidis"}, "S. aureus ATCC 4163 [7]": {"system": "S. aureus ATCC 4163", "assay": "MIC microdilution", "settings": "Staphylococcus aureus"}, "MRSA 456/11": {"system": "MRSA 456/11", "assay": "MIC microdilution, hospital MRSA", "settings": "Staphylococcus aureus"}, "[8]": {"system": "standard strains of Gram-positive bacteria", "assay": "MIC microdilution, standard Gram-positive strains overall (range given)", "settings": "standard S. aureus and S. epidermidis strains"}, "[9]": {"settings": "hospital MRSA strain 537/12, read-out: MIC"}, "[10]": {"settings": "hospital MRSE strain 489/11, read-out: MIC"}, "[11]": {"settings": "ATCC35984, S. epidermidis ATCC 35984, 18 h, 35 °C, read-out: MIC"}, "[12]": {"settings": "hospital MRSE strain 461/11, read-out: MIC"}, "[13]": {"settings": "hospital MRSE strain 459/11, read-out: MIC"}, "[14]": {"settings": "hospital MRSE strain 470/11, read-out: MIC"}, "[15]": {"settings": "ATCC6538, S. aureus ATCC 6538, 18 h, 35 °C, read-out: MIC"}, "[16]": {"settings": "hospital MRSE strain 469/11, read-out: MIC"}, "[17]": {"settings": "ATCC4163, S. aureus ATCC 4163, 18 h, 35 °C, read-out: MIC"}, "[18]": {"settings": "hospital MRSA strain 456/11, read-out: MIC"}}, "note": "Where two headings read alike, the source gives them in different places."}
{"smiles": "CC[C@H](C(=O)NCc1ccc(F)cc1)C1CC[C@H](C)C([C@@H](C)[C@H](O)[C@H](C)C(=O)[C@H](CC)C2O[C@]3(C=C[C@@H](O)C4(CC[C@@](C)(C5CC[C@](O)(CC)[C@H](C)O5)O4)O3)[C@H](C)C[C@@H]2C)O1", "note": "(stereo partly shown) [F-p]", "values": [{"measurement": "MIC", "setting": "MRSA 537/12; [9]", "value": 32, "unit": "µg/mL"}, {"measurement": "MIC", "setting": "MRSE 489/11; [10]", "value": 32, "unit": "µg/mL"}, {"measurement": "MIC", "setting": "[1]; [11]", "value": 32, "unit": "µg/mL"}, {"measurement": "GIZ", "setting": "[2]", "value": 18, "unit": "mm"}, {"measurement": "GIZ", "setting": "S. aureus ATCC 29213", "value": 20, "unit": "mm"}, {"measurement": "GIZ", "setting": "S. aureus ATCC 4163 [3]", "value": 18, "unit": "mm"}, {"measurement": "GIZ", "setting": "S. aureus ATCC 25923", "value": 19, "unit": "mm"}, {"measurement": "GIZ", "setting": "S. aureus ATCC 6538 [4]", "value": 19, "unit": "mm"}, {"measurement": "GIZ", "setting": "[5]", "value": 20, "unit": "mm"}, {"measurement": "MIC (range over MRSA and MRSE)", "setting": "MRSA and MRSE", "value": "16 to 128", "unit": "µg/mL"}, {"measurement": "MIC", "setting": "MRSE 461/11; [12]", "value": 32, "unit": "µg/mL"}, {"measurement": "MIC", "setting": "MRSE 459/11; [13]", "value": 32, "unit": "µg/mL"}, {"measurement": "MIC", "setting": "MRSE 470/11; [14]", "value": 32, "unit": "µg/mL"}, {"measurement": "MIC", "setting": "S. aureus ATCC 6538 [6]; [15]", "value": 16, "unit": "µg/mL"}, {"measurement": "MIC", "setting": "MRSE 469/11; [16]", "value": 64, "unit": "µg/mL"}, {"measurement": "MIC", "setting": "S. aureus ATCC 4163 [7]; [17]", "value": 32, "unit": "µg/mL"}, {"measurement": "MIC", "setting": "MRSA 456/11; [18]", "value": 16, "unit": "µg/mL"}, {"measurement": "MIC (range over standard strains of Gram-positive bacteria)", "setting": "[8]", "value": "16 to 32", "unit": "µg/mL"}]}
{"smiles": "CC[C@@H](C(=O)[C@@H](C)[C@@H](O)[C@H](C)[C@@H]1O[C@@H]([C@@H](CC)C(=O)O)CC[C@@H]1C)[C@H]1O[C@]2(C=C[C@@H](O)[C@]3(CC[C@@](C)([C@H]4CC[C@](O)(CC)[C@H](C)O4)O3)O2)[C@H](C)C[C@@H]1C", "note": "[SAL, Salinomycin]", "values": [{"measurement": "MIC", "setting": "MRSA 537/12; MRSA", "value": 16, "unit": "µg/mL"}, {"measurement": "MIC", "setting": "MRSE 489/11; MRSE", "value": 16, "unit": "µg/mL"}, {"measurement": "MIC", "setting": "[1]; ATCC35984, 18 h", "value": 2, "unit": "µg/mL"}, {"measurement": "GIZ", "setting": "[2]", "value": 33, "unit": "mm"}, {"measurement": "GIZ", "setting": "S. aureus ATCC 29213", "value": 28, "unit": "mm"}, {"measurement": "GIZ", "setting": "S. aureus ATCC 4163 [3]", "value": 30, "unit": "mm"}, {"measurement": "GIZ", "setting": "S. aureus ATCC 25923", "value": 29, "unit": "mm"}, {"measurement": "GIZ", "setting": "S. aureus ATCC 6538 [4]", "value": 34, "unit": "mm"}, {"measurement": "GIZ", "setting": "[5]", "value": 34, "unit": "mm"}, {"measurement": "MIC", "setting": "MRSE 461/11; MRSE", "value": 16, "unit": "µg/mL"}, {"measurement": "MIC", "setting": "MRSE 459/11; MRSE", "value": 16, "unit": "µg/mL"}, {"measurement": "MIC", "setting": "MRSE 470/11; MRSE", "value": 16, "unit": "µg/mL"}, {"measurement": "MIC", "setting": "S. aureus ATCC 6538 [6]; ATCC6538, 18 h", "value": 2, "unit": "µg/mL"}, {"measurement": "MIC", "setting": "MRSE 469/11; MRSE", "value": 16, "unit": "µg/mL"}, {"measurement": "MIC", "setting": "S. aureus ATCC 4163 [7]; ATCC4163, 18 h", "value": 2, "unit": "µg/mL"}, {"measurement": "MIC", "setting": "MRSA 456/11; MRSA", "value": 16, "unit": "µg/mL"}]}
{"smiles": "CC[C@H](C(=O)NCc1ccc([N+](=O)[O-])cc1)C1CC[C@H](C)C([C@@H](C)[C@H](O)[C@H](C)C(=O)[C@H](CC)C2O[C@]3(C=C[C@@H](O)C4(CC[C@@](C)(C5CC[C@](O)(CC)[C@H](C)O5)O4)O3)[C@H](C)C[C@@H]2C)O1", "note": "(stereo partly shown) [NO2-p]", "values": [{"measurement": "MIC", "setting": "MRSA 537/12; [9]", "value": 256, "unit": "µg/mL"}, {"measurement": "MIC", "setting": "MRSE 489/11; [10]", "value": 256, "unit": "µg/mL"}, {"measurement": "MIC", "setting": "[1]; [11]", "value": 128, "unit": "µg/mL"}, {"measurement": "GIZ", "setting": "[2]", "value": "un"}, {"measurement": "GIZ", "setting": "S. aureus ATCC 29213", "value": "un"}, {"measurement": "GIZ", "setting": "S. aureus ATCC 4163 [3]", "value": "un"}, {"measurement": "GIZ", "setting": "S. aureus ATCC 25923", "value": "un"}, {"measurement": "GIZ", "setting": "S. aureus ATCC 6538 [4]", "value": "un"}, {"measurement": "GIZ", "setting": "[5]", "value": "un"}, {"measurement": "MIC (range over MRSA and MRSE)", "setting": "MRSA and MRSE", "value": "128 to 256", "unit": "µg/mL"}, {"measurement": "MIC", "setting": "MRSE 461/11; [12]", "value": 256, "unit": "µg/mL"}, {"measurement": "MIC", "setting": "MRSE 459/11; [13]", "value": 128, "unit": "µg/mL"}, {"measurement": "MIC", "setting": "MRSE 470/11; [14]", "value": 256, "unit": "µg/mL"}, {"measurement": "MIC", "setting": "S. aureus ATCC 6538 [6]; [15]", "value": 128, "unit": "µg/mL"}, {"measurement": "MIC", "setting": "MRSE 469/11; [16]", "value": 256, "unit": "µg/mL"}, {"measurement": "MIC", "setting": "S. aureus ATCC 4163 [7]; [17]", "value": 128, "unit": "µg/mL"}, {"measurement": "MIC", "setting": "MRSA 456/11; [18]", "value": 128, "unit": "µg/mL"}, {"measurement": "MIC (range over standard strains of Gram-positive bacteria)", "setting": "[8]", "value": 128, "unit": "µg/mL"}]}
